From patent US6479467B1, “Cyclodextrin ethers” (Eastman Chemical Company, priority 1999, dated 2002)

Description: The suspensions were stirred for 24 hours at 25° C. The undissolved residues were removed by filtration through a […] filter. The solutions were diluted with a 1:1 water/ethanol mixture and concentrations of the guest molecules were determined spectrophotometrically using an HP 8542 diode array spectrophotometer. The solubility of the guest molecules was represented as a function of the CD derivative concentration. The apparent binding constants were calculated from the slope of the solubility isotherm. The guest molecules evaluated were water-immiscible pharmaceuticals, fragrances, and other organic molecules.

Kc(HBen-β-CD), apparent binding constant in guest molecule/CD derivative complex	Kc(HP-β-CD), apparent binding constant in guest molecule/CD derivative complex	Molecule	Binding constants compared with HP-β-CD, in words
183 M⁻¹		O=C(O)c1ccccc1O [Salicylic Acid, salicylic acid]	
136 M⁻¹	62 M⁻¹	COc1ccc(Cl)cc1C(=O)NCCc1ccc(S(=O)(=O)NC(=O)NC2CCCCC2)cc1 [Glibenclamide, glibenclamide]	
520 M⁻¹	376 M⁻¹	CC(C)Cc1ccc(C(C)C(=O)O)cc1 (centres unmarked) [Ibuprofen, ibuprofen]	
		hydroxybutenyl-β-cyclodextrin [HBen-β-CD]	higher binding constants than did HP-β-CD

Molecule	Kc(HBen-β-CD), apparent binding constant in guest molecule/CD derivative complex	Kc(HP-β-CD), apparent binding constant in guest molecule/CD derivative complex	Binding constants compared with HP-β-CD, in words
Cc1ccccc1 [Toluene, toluene]	1111 M⁻¹	773 M⁻¹	
